Measured values from patent US11090267B2, “Rapidly degrading embolic particles with therapeutic agent release” (priority 2014, dated 2021).

Experiment: incubation in water at 37° C., crystal form conversion (micrographs)
Assay type: physicochemical

## CC(=O)O[C@H]1C(=O)[C@@]2(C)[C@H]([C@H](OC(=O)c3ccccc3)[C@]3(O)C[C@H](OC(=O)[C@H](O)[C@@H](NC(=O)c4ccccc4)c4ccccc4)C(C)=C1C3(C)C)[C@]1(OC(C)=O)CO[C@@H]1C[C@@H]2O [amorphous paclitaxel, paclitaxel]
Amorphous paclitaxel microparticles dispersed in PLGA matrix, water at 37C, FIG. 4
  conversion to dihydrate crystals upon incubation in water: coalesce within hours into large, needle-like dihydrate crystals

## CC(=O)O[C@H]1C(=O)[C@@]2(C)[C@H]([C@H](OC(=O)c3ccccc3)[C@]3(O)C[C@H](OC(=O)[C@H](O)[C@@H](NC(=O)c4ccccc4)c4ccccc4)C(C)=C1C3(C)C)[C@]1(OC(C)=O)CO[C@@H]1C[C@@H]2O [crystalline anhydrous paclitaxel, paclitaxel]
as-received powder dispersed in water at 37° C., FIGS. 5 and 6
  conversion to dihydrate crystals upon incubation in water: coalesce within hours to large needle-like dihydrate crystals
